The compounds below were run against T1, SMYD2 (Homo sapiens, UniProt Q9NRG4) (assay: SMYD2 Biochemical Assay (3H-SAM, biotinylated peptide substrate, Flashplate)). Settings: IC50 values are an average of n = 1 to n = 50; read-out: SMYD2 Biochem IC50 (μM)*.
T1 construct: Full length SMYD2 (NP 064582.2) was cloned; His6 (N, cleaved yes); FLAG (N); made in house; host or cells: Sf9 insect cells
Summary of the method: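 Full-length His/FLAG-tagged SMYD2 expressed in Sf9 cells with tag cleaved, 1.5 nM, pre-incubated 30 min at room temperature with compound, then 10 nM 3H-SAM and 60 nM biotinylated peptide added. Buffer 20 mM Bicine pH 7.6, 1 mM TCEP, 0.005% BSG, 0.002% Tween20, 2% DMSO. Stopped with 600 uM cold SAM; 3H-peptide captured on streptavidin Flashplate; IC50 by curve fit.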

T1 sequence (Q9NRG4 whole entry): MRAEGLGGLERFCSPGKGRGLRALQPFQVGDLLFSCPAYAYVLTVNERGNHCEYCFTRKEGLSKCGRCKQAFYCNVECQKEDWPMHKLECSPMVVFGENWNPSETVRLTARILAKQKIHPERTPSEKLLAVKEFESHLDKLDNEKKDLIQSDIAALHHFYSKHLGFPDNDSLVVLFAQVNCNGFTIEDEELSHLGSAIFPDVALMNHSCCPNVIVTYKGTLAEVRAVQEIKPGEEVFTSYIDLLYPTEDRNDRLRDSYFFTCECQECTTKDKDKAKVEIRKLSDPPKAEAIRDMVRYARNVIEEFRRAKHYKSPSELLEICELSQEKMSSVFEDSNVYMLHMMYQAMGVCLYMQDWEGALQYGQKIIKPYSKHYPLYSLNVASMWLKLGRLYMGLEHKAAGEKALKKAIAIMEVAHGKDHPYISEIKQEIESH

Structure (SMILES)	IC50
C[C@@H]1CN(c2cnccn2)C[C@H]1NC(=O)c1cc(C2CC2)on1 (racemic) [compound 292, (±)-trans-5-cyclopropyl-N-[4-methyl-1-(pyrazin-2-yl)pyrrolidin-3-yl]-1,2-oxazole-3-carboxamide]	> 50 µM
C[C@@H]1CN(CC(=O)N2CCCC2)C[C@H]1NC(=O)c1cc(C2CC2)on1 (racemic) [compound 293, (±)-trans-5-cyclopropyl-N-{4-methyl-1-[2-oxo-2-(pyrrolidin-1-yl)ethyl]pyrrolidin-3-yl}-1,2-oxazole-3-carboxamide]	> 50 µM
C[C@@H]1CN(CC(=O)N2CCN(C)CC2)C[C@H]1NC(=O)c1cc(C2CC2)on1 (racemic) [compound 294, (±)-trans-5-cyclopropyl-N-{4-methyl-1-[2-(4-methylpiperazin-1-yl)-2-oxoethyl]pyrrolidin-3-yl}-1,2-oxazole-3-carboxamide]	> 50 µM
CC(=O)Nc1ccccc1N1C[C@@H](C)[C@H](NC(=O)c2cc(C3CC3)on2)C1 (racemic) [compound 295, (±)-trans-5-cyclopropyl-N-[1-(2-acetamido-phenyl)-4-methylpyrrolidin-3-yl]-1,2-oxazole-3-carboxamide]	> 50 µM
C[C@@H]1CN(c2ccccc2)C[C@H]1NC(=O)c1cc(C2CC2)on1 (racemic) [compound 296, (±)-trans-5-cyclopropyl-N-(4-methyl-1-phenyl-pyrrolidin-3-yl)-1,2-oxazole-3-carboxamide]	> 50 µM
C[C@@H]1CN(c2cccc(Cl)c2)C[C@H]1NC(=O)c1cc(C2CC2)on1 (racemic) [compound 297, (±)-trans-N-[1-(3-chloro-phenyl)-4-methyl-pyrrolidin-3-yl]-5-cyclopropyl-1,2-oxazole-3-carboxamide]	> 50 µM
C[C@@H]1CN(c2ccc(Cl)cc2)C[C@H]1NC(=O)c1cc(C2CC2)on1 (racemic) [compound 298, (±)-trans-N-[1-(4-chloro-phenyl)-4-methyl-pyrrolidin-3-yl]-5-cyclopropyl-1,2-oxazole-3-carboxamide]	> 50 µM
COc1ccc(N2C[C@@H](C)[C@H](NC(=O)c3cc(C4CC4)on3)C2)cc1 (racemic) [compound 299, (±)-trans-5-cyclopropyl-N-[1-(4-methoxyphenyl)-4-methylpyrrolidin-3-yl]-1,2-oxazole-3-carboxamide]	> 50 µM
C[C@H]1CN(c2ccccc2Cl)C[C@H]1NC(=O)c1cc(C2CC2)on1 (racemic) [compound 301, (±)-cis-N-[1-(2-chloro-phenyl)-4-methyl-pyrrolidin-3-yl]-5-cyclo-propyl-1,2-oxazole-3-carboxamide]	> 50 µM
C[C@H]1CN(c2cnccn2)C[C@H]1NC(=O)c1cc(C2CC2)on1 (racemic) [compound 302, (±)-cis-5-cyclopropyl-N-[4-methyl-1-(pyrazin-2-yl)pyrrolidin-3-yl]-1,2-oxazole-3-carboxamide]	> 50 µM
C[C@H]1CN(CC(N)=O)C[C@H]1NC(=O)c1cc(C2CC2)on1 (racemic) [compound 303, (±)-cis-N-[1-(carbamoyl-methyl)-4-methyl-pyrrolidin-3-yl]-5-cyclo-propyl-1,2-oxazole-3-carboxamide]	> 50 µM
C[C@H]1CN(CC(=O)N2CCNCC2)C[C@H]1NC(=O)c1cc(C2CC2)on1 (racemic) [compound 304, (±)-cis-5-cyclopropyl-N-{4-methyl-1-[2-oxo-2-(piperazin-1-yl)ethyl]pyrrolidin-3-yl}-1,2-oxazole-3-carboxamide]	> 50 µM
C[C@H]1CN(c2cccc(Cl)c2)C[C@H]1NC(=O)c1cc(C2CC2)on1 (racemic) [compound 307, (±)-cis-N-[1-(3-chlorophenyl)-4-methylpyrrolidin-3-yl]-5-cyclopropyl-1,2-oxazole-3-carboxamide]	> 50 µM
COc1ccc(N2C[C@H](C)[C@H](NC(=O)c3cc(C4CC4)on3)C2)cc1 (racemic) [compound 308, (±)-cis-5-cyclopropyl-N-[1-(4-methoxy-phenyl)-4-methyl-pyrrolidin-3-yl]-1,2-oxazole-3-carboxamide]	> 50 µM
C[C@@H]1CN(c2cccnc2)C[C@H]1NC(=O)c1cc(C2CC2)on1 (racemic) [compound 309, (±)-trans-5-cyclopropyl-N-[4-methyl-1-(pyridin-3-yl)pyrrolidin-3-yl]-1,2-oxazole-3-carboxamide]	> 50 µM
C[C@@H]1CN(CC(N)=O)C[C@H]1NC(=O)c1cc(C2CC2)on1 (racemic) [compound 310, (±)-trans-N-[1-(carbamoylmethyl)-4-methylpyrrolidin-3-yl]-5-cyclopropyl-1,2-oxazole-3-carboxamide]	> 50 µM
C[C@@H]1CN(CC(=O)N2CCNCC2)C[C@H]1NC(=O)c1cc(C2CC2)on1 (racemic) [compound 311, (±)-trans-5-cyclopropyl-N-{4-methyl-1-[2-oxo-2-(piperazin-1-yl)ethyl]pyrrolidin-3-yl}-1,2-oxazole-3-carboxamide]	> 50 µM
C[C@@H]1CN(c2ccccn2)C[C@H]1NC(=O)c1cc(C2CC2)on1 (racemic) [compound 312, (±)-trans-5-cyclopropyl-N-[4-methyl-1-(pyridin-2-yl)pyrrolidin-3-yl]-1,2-oxazole-3-carboxamide]	> 50 µM

Next, values leading:

IC50	Structure (SMILES)
> 50 µM	COc1ccccc1N1C[C@H](C)[C@H](NC(=O)c2cc(C3CC3)on2)C1 (racemic) [compound 279, (±)-cis-5-cyclopropyl-N-[1-(2-methoxyphenyl)-4-methylpyrrolidin-3-yl]-1,2-oxazole-3-carboxamide]
> 50 µM	COc1cccc(N2C[C@H](C)[C@H](NC(=O)c3cc(C4CC4)on3)C2)c1 (racemic) [compound 280, (±)-cis-5-cyclopropyl-N-[1-(3-methoxyphenyl)-4-methylpyrrolidin-3-yl]-1,2-oxazole-3-carboxamide]
> 50 µM	CC(C)N1C[C@@H](C)[C@H](NC(=O)c2cc(C(F)F)on2)C1 (racemic) [compound 281, (±)-trans-5-(difluoro-methyl)-N-[4-methyl-1-(propan-2-yl)pyrrolidin-3-yl]-1,2-oxazole-3-carboxamide]
26.7 µM	C[C@H]1CN(Cc2cc([N+](=O)[O-])ccc2F)C[C@H]1NC(=O)c1cc(C2CC2)on1 (racemic) [compound 282, (±)-cis-5-cyclopropyl-N-{1-[(2-fluoro-5-nitrophenyl)methyl]-4-methylpyrrolidin-3-yl}-1,2-oxazole-3-carboxamide]
1.85 µM	C[C@H]1CN(Cc2ccsc2)C[C@H]1NC(=O)c1cc(C2CC2)on1 (racemic) [compound 283, (±)-cis-5-cyclopropyl-N-[4-methyl-1-(thiophen-3-ylmethyl)pyrrolidin-3-yl]-1,2-oxazole-3-carboxamide]
40.5 µM	COc1ncc(CN2C[C@H](C)[C@H](NC(=O)c3cc(C4CC4)on3)C2)cc1Br (racemic) [compound 284, (±)-cis-N-{1-[(5-bromo-6-methoxypyridin-3-yl)methyl]-4-methyl-pyrrolidin-3-yl}-5-cyclopropyl-1,2-oxazole-3-carboxamide]
> 50 µM	CNC(=O)CN1C[C@@H](C)[C@H](NC(=O)c2cc(C3CC3)on2)C1 (racemic) [compound 286, (±)-trans-5-cyclopropyl-N-{4-methyl-1-[(methyl-carbamoyl)methyl]pyrrolidin-3-yl}-1,2-oxazole-3-carboxamide]
> 50 µM	CNC(=O)CN1C[C@H](C)[C@H](NC(=O)c2cc(C3CC3)on2)C1 (racemic) [compound 287, (±)-cis-5-cyclopropyl-N-{4-methyl-1-[(methyl-carbamoyl)methyl]pyrrolidin-3-yl}-1,2-oxazole-3-carboxamide]
21.1 µM	C[C@H]1CN(Cc2c[nH]c(-c3ccccc3)n2)C[C@H]1NC(=O)c1cc(C2CC2)on1 (racemic) [compound 288, (±)-cis-5-cyclopropyl-N-{4-methyl-1-[(2-phenyl-1H-imidazol-4-yl)methyl]pyrrolidin-3-yl}-1,2-oxazole-3-carboxamide]
6.08 µM	C[C@H]1CN(Cc2ccc3c(c2)OCCN3C)C[C@H]1NC(=O)c1cc(C2CC2)on1 (racemic) [compound 289, (±)-cis-5-cyclopropyl-N-{4-methyl-1-[(4-methyl-3,4-dihydro-2H-1,4-benzoxazin-7-yl)methyl]pyrrolidin-3-yl}-1,2-oxazole-3-carboxamide]
10.5 µM	C[C@H]1CN(Cc2ccc(S(C)(=O)=O)cc2)C[C@H]1NC(=O)c1cc(C2CC2)on1 (racemic) [compound 290, (±)-cis-5-cyclopropyl-N-{1-[(4-methane-sulfonylphenyl)methyl]-4-methylpyrrolidin-3-yl}-1,2-oxazole-3-carboxamide]
2.46 µM	C[C@H]1CN(CCc2ccccc2)C[C@H]1NC(=O)c1cc(C2CC2)on1 (racemic) [compound 291, (±)-cis-5-cyclopropyl-N-[4-methyl-1-(2-phenylethyl)pyrrolidin-3-yl]-1,2-oxazole-3-carboxamide]
9.59 µM	CC(C)N1C[C@H](C)[C@H](NC(=O)c2cc(C(F)F)on2)C1 (racemic) [compound 300, (±)-cis-5-(difluoro-methyl)-N-[4-methyl-1-(propan-2-yl)pyrrolidin-3-yl]-1,2-oxazole-3-carboxamide]
41.1 µM	C[C@H]1CN(Cc2nccn2C)C[C@H]1NC(=O)c1cc(C2CC2)on1 (racemic) [compound 305, (±)-cis-5-cyclopropyl-N-{4-methyl-1-[(1-methyl-1H-imidazol-2-yl)methyl]pyrrolidin-3-yl}-1,2-oxazole-3-carboxamide]
41.2 µM	C[C@H]1CN(Cc2ccnn2C)C[C@H]1NC(=O)c1cc(C2CC2)on1 (racemic) [compound 306, (±)-cis-5-cyclopropyl-N-{4-methyl-1-[(1-methyl-1H-pyrazol-5-yl)methyl]pyrrolidin-3-yl}-1,2-oxazole-3-carboxamide]

Reference: patent US20170253601A1, “Substituted Pyrrolidine Compounds” (EPIZYME, INC., priority 2014, published 2017)
